Results on 21 compounds are retold here after PubChem BioAssay (NCI).

Each structure is given as a SMILES string.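 Grown in 96-well plates, cells were treated for 48 hours with each compound at five concentrations. Insufficient inhibition: endpoint recorded as highest concentration tested. TGI denotes the concentration required for complete inhibition of growth.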

Test systems include HOP-92 NSCLC; MDA-N; NCI-H226 lung; SK-MEL-28 melanoma; SK-MEL-5 melanoma; SN12C renal; SNB-19 CNS; SR leukemia; T-47D breast; EKVX NSCLC.
Assay in all cases: NCI tumour cell line growth inhibition, 48 h

As to `Cc1ccc(S(=O)(=O)N2CCCSCC2)cc1`, the TGI in the assay on HOP-92 NSCLC, in the assay with MDA-N, with NCI-H226 lung, in the assay on SK-MEL-28 melanoma, in the assay with SK-MEL-5 melanoma and in the assay with SN12C renal was over 100 µM each time. The TGI with SNB-19 CNS, with SR leukemia and in the assay on T-47D breast was over 100 µM throughout.
Consider `CC(=O)OCC1OC(n2c(-c3ccc(C)cc3)cc(-c3ccccc3)c(C#N)c2=S)C(OC(C)=O)C(OC(C)=O)C1OC(C)=O` (configuration not stated), for which the TGI with EKVX NSCLC, with HOP-92 NSCLC, in the assay with MDA-N, in the assay with NCI-H226 lung, in the assay with SK-MEL-28 melanoma and with SK-MEL-5 melanoma was over 100 µM in each case. Besides, the TGI with SN12C renal, in the assay with SNB-19 CNS, with SR leukemia and in the assay with T-47D breast was over 100 µM throughout.
For the compound `CC(C)(C)OC(=O)N1C(c2cccnc2)=CC[C@H]2C3CC=C(c4cccnc4)[C@@]3(C)CC[C@@H]21` (some centres not stated), the TGI in the assay with EKVX NSCLC was 10.3 µM; in the assay with HOP-92 NSCLC, 8.34 µM; in the assay with MDA-N, 9.2 µM; in the assay on NCI-H226 lung, 15.1 µM; in the assay with SK-MEL-5 melanoma, 4.18 µM; in the assay on SN12C renal, 13 µM. The TGI in the assay on SNB-19 CNS stood at 17.2 µM; with SR leukemia it was 22.2 µM; in the assay on T-47D breast it was 29.8 µM.
`COc1cc(CNNC(N)=S)cc(OC)c1OC`: the TGI in the assay with EKVX NSCLC, in the assay on HOP-92 NSCLC, with MDA-N, in the assay on NCI-H226 lung, in the assay with SK-MEL-28 melanoma and in the assay with SK-MEL-5 melanoma was over 100 µM each time. The TGI in the assay on SN12C renal, in the assay on SNB-19 CNS, in the assay with SR leukemia and in the assay on T-47D breast was over 100 µM in each case.
For the compound `Cn1c2ccccc2c(=O)c2cccc(C(=O)NC(CCC(N)=O)C(=O)O)c21` (configuration not stated), the TGI in the assay on EKVX NSCLC, in the assay on MDA-N, in the assay on NCI-H226 lung, with SK-MEL-28 melanoma, in the assay on SK-MEL-5 melanoma and with SN12C renal was over 100 µM in each case. Also, the TGI in the assay with SNB-19 CNS, in the assay on SR leukemia and in the assay on T-47D breast was over 100 µM in each case.
With `O=C(NCCCCCCNC(=O)c1cc(-c2ccccc2)nc2ccccc12)c1cc(-c2ccccc2)nc2ccccc12`, the TGI in the assay with EKVX NSCLC, in the assay with HOP-92 NSCLC, in the assay with MDA-N, with NCI-H226 lung, with SK-MEL-28 melanoma and in the assay on SK-MEL-5 melanoma was over 100 µM each time. The TGI in the assay with SN12C renal, in the assay with SNB-19 CNS, with SR leukemia and with T-47D breast was over 100 µM throughout.
Regarding `Cc1cn(CC2=NCC(C)N2)c(=O)[nH]c1=O` (configuration not stated), the TGI with EKVX NSCLC, with HOP-92 NSCLC, with MDA-N, in the assay with NCI-H226 lung, in the assay with SK-MEL-28 melanoma and with SK-MEL-5 melanoma was over 100 µM each time. Moreover, the TGI in the assay on SN12C renal, in the assay on SNB-19 CNS, in the assay on SR leukemia and with T-47D breast was over 100 µM in each case.
For `CC1=C(C(=O)Nc2ccccc2)C2(CCCCC2)C(C#N)=C(SCC(=O)Nc2ccc(Br)cc2)N1`, the TGI in the assay with EKVX NSCLC is 7.81 µM; with HOP-92 NSCLC it was 8.44 µM; in the assay on MDA-N, 17.2 µM; in the assay with NCI-H226 lung, 23 µM; with SK-MEL-28 melanoma, over 26.5 µM; with SK-MEL-5 melanoma, 8.39 µM. Besides, the TGI is 16.6 µM in the assay with SN12C renal, over 32.7 µM with SNB-19 CNS, 6.11 µM in the assay with SR leukemia and 92.5 µM in the assay with T-47D breast.
Take `Cc1ccc(NC(=O)c2cc(S(=O)(=O)Nc3nc4ncccc4[nH]3)c(SSc3cc(Cl)c(C(=O)Nc4ccc(C)cc4)cc3S(=O)(=O)Nc3nc4ncccc4[nH]3)cc2Cl)cc1`: the TGI in the assay with EKVX NSCLC, in the assay on HOP-92 NSCLC, in the assay on MDA-N, in the assay with NCI-H226 lung, in the assay with SK-MEL-28 melanoma and in the assay on SK-MEL-5 melanoma was over 100 µM each time. The TGI in the assay on SN12C renal, in the assay with SNB-19 CNS, with SR leukemia and in the assay with T-47D breast was over 100 µM each time.
In the case of `CC(=O)OCc1ccc2oc(=O)c(C(=O)Oc3ccccc3)cc2c1`, the TGI in the assay on EKVX NSCLC is over 100 µM; in the assay on HOP-92 NSCLC, 40.2 µM; in the assay with MDA-N, over 100 µM; in the assay with NCI-H226 lung it was over 100 µM; in the assay with SK-MEL-28 melanoma it was over 100 µM; in the assay with SK-MEL-5 melanoma, over 100 µM. Moreover, the TGI in the assay on SN12C renal was 99.2 µM; in the assay on SNB-19 CNS it was over 100 µM; in the assay with SR leukemia, over 100 µM; with T-47D breast, 37.3 µM.
For the compound `COC(=O)c1ccccc1C1CN=NC12Cc1cc(C)ccc1C2=O` (configuration not stated), the TGI in the assay on EKVX NSCLC, in the assay on HOP-92 NSCLC, in the assay on MDA-N, with NCI-H226 lung, in the assay on SK-MEL-28 melanoma and in the assay on SK-MEL-5 melanoma was over 100 µM each time. Besides, the TGI with SN12C renal, in the assay with SNB-19 CNS, in the assay on SR leukemia and in the assay on T-47D breast was over 100 µM each time.
For the compound `O=C1C(c2c(O)[nH]c3ccc(Br)cc23)=Nc2ccccc21`, the TGI with EKVX NSCLC is 20.2 µM; in the assay with HOP-92 NSCLC, 34.9 µM; in the assay with MDA-N, 34.8 µM; in the assay on NCI-H226 lung, 34.3 µM; in the assay with SK-MEL-28 melanoma, over 100 µM; with SK-MEL-5 melanoma it was 18.6 µM. The TGI in the assay with SN12C renal was over 100 µM; in the assay on SNB-19 CNS it was 28.1 µM; with SR leukemia, over 100 µM; in the assay on T-47D breast, 64.2 µM.
On to `COC(=O)C(CCSC)NC(=O)Cc1ccc(C(=O)c2ccccc2)cc1` (configuration not stated), for which the TGI in the assay with EKVX NSCLC is over 100 µM; with HOP-92 NSCLC, over 100 µM; with MDA-N it was 35.1 µM; in the assay with NCI-H226 lung, over 100 µM; in the assay with SK-MEL-28 melanoma, over 100 µM; in the assay with SK-MEL-5 melanoma, over 100 µM. Also, the TGI with SN12C renal, with SNB-19 CNS, with SR leukemia and in the assay with T-47D breast was over 100 µM each time.
Regarding `CCOC(=O)NC(Nc1ccc(C(=O)OCC)cc1)(C(F)(F)F)C(F)(F)F`, the TGI with HOP-92 NSCLC, in the assay with MDA-N, in the assay on NCI-H226 lung, with SK-MEL-28 melanoma, in the assay with SK-MEL-5 melanoma and with SN12C renal was over 100 µM each time. Further, the TGI in the assay with SNB-19 CNS, with SR leukemia and in the assay with T-47D breast was over 100 µM throughout.
Turning to `O=C(O)CN1C(=O)C(Cc2ccc(O)cc2)N=C(c2cccc(O)c2)c2ccccc21` (configuration not stated), the TGI is over 100 µM in the assay with EKVX NSCLC; over 100 µM in the assay with HOP-92 NSCLC; 26 µM with MDA-N; over 100 µM with NCI-H226 lung; over 100 µM in the assay with SK-MEL-28 melanoma; 34.8 µM in the assay with SN12C renal. For the same compound, the TGI in the assay with SNB-19 CNS, in the assay with SR leukemia and in the assay on T-47D breast was over 100 µM each time.
Turning to `Oc1ccc2c(c1)-c1c(c3ccccc3n1CCN1CCOCC1)CC2`, the TGI with EKVX NSCLC is over 100 µM; with MDA-N it was over 100 µM; with NCI-H226 lung, 81.2 µM; in the assay with SK-MEL-5 melanoma, over 100 µM; in the assay on SN12C renal, over 100 µM; in the assay with SNB-19 CNS it was over 100 µM. The TGI in the assay on SR leukemia and with T-47D breast was over 100 µM in each case.
For the compound `NC(N)=Nc1ccc(CC(N)C(=O)O)cc1` (configuration not stated), the TGI with EKVX NSCLC, with HOP-92 NSCLC, in the assay on MDA-N, in the assay with NCI-H226 lung, in the assay on SK-MEL-28 melanoma and in the assay with SK-MEL-5 melanoma was over 12.5 µM throughout. Besides, the TGI in the assay with SN12C renal, in the assay with SR leukemia and in the assay with T-47D breast was over 12.5 µM throughout.
`COc1ccc2nc(-c3ccc(O)cc3)sc2c1`: the TGI in the assay on EKVX NSCLC was 35.7 µM; in the assay with MDA-N, 50.8 µM; with NCI-H226 lung it was 45.8 µM; in the assay with SK-MEL-5 melanoma it was 38 µM; with SN12C renal, 39.5 µM; in the assay on SNB-19 CNS, over 100 µM. The TGI worked out at 22.5 µM in the assay with SR leukemia and 36.7 µM in the assay with T-47D breast.
In the case of `C=C(C)[C@@H]1CCC2=C[C@H](OC2=O)[C@@]2(C)C[C@@H]2C2=CC(C)=C(O2)[C@H]1O`, the TGI with EKVX NSCLC, in the assay on HOP-92 NSCLC, in the assay on MDA-N, in the assay with NCI-H226 lung, with SK-MEL-28 melanoma and in the assay on SN12C renal was over 75 µM in each case. For the same compound, the TGI with SNB-19 CNS, in the assay with SR leukemia and in the assay on T-47D breast was over 75 µM throughout.
For the compound `N#Cc1ccc(-n2c3ccccc3c3ccc4c(c32)C(=O)C=CC4=O)cc1`, the TGI in the assay with EKVX NSCLC was 5.58 µM; in the assay with MDA-N, 13.1 µM; with NCI-H226 lung, over 74.5 µM; in the assay on SK-MEL-28 melanoma, 13.1 µM; in the assay with SK-MEL-5 melanoma it was 12.2 µM; in the assay on SN12C renal, 14.2 µM. The TGI in the assay on SNB-19 CNS is 26.6 µM; in the assay on SR leukemia, 6.92 µM; in the assay with T-47D breast it was over 100 µM.
Consider `Cc1nc2c(=O)n(C)ncc2[nH]1`, for which the TGI in the assay on EKVX NSCLC, with MDA-N, in the assay with NCI-H226 lung, in the assay with SK-MEL-28 melanoma, in the assay with SK-MEL-5 melanoma and in the assay with SN12C renal was over 100 µM throughout. Besides, the TGI in the assay with SNB-19 CNS, in the assay on SR leukemia and with T-47D breast was over 100 µM each time.
